Measured values from patent US20110081675A1, “Metabolic Biomarkers Of Drug-Induced Cardiotoxicity” (WISCONSIN ALUMNI RESEARCH FOUNDATION, priority 2009, published 2011).

Key:
human cardiomyocytes = test system: human cardiomyocytes
Protocol: The percentage of cell death, inherently and after drug treatment, was calculated by Trypan Blue staining (FIG. 2).
The doses for each compound were based upon published standards, equivalent to therapeutic circulating levels whenever possible (see Table 1).

[1] = test system: human cardiomyocytes (Celprogen 36044-15at); test: LC-ESI-TOF-MS metabolomics of extracellular media of drug-treated human cardiomyocytes (Tables 2A-2C); type: cell-based; settings: for doxfold: 26uM Doxorubicin; for pacfold: 15uM paclitaxel
Protocol: Data for statistical analysis were extracted from chromatograms using the Agilent Mass Hunter software (Product No. G3297AA, Agilent Technologies, Inc., Santa Clara, Calif.); it will be understood that alternative statistical analysis methods can be used. Masses were binned together if they were within 10 ppm and eluted within a 2 minutes retention time window. A binned mass was considered to be the same molecule across different LC-ESI-TOF-MS analyses (referred to herein as an “exact mass,” which will be understood to be ±10 ppm). Binning of the data is required for statistical analysis and comparison of masses across the entire experiment. If multiple peaks with the same mass at the same retention time within a single sample were detected by Mass Hunter, they were averaged to assist data analysis. Masses lacking a natural isotopic distribution or with an absolute height of less than 1000 were removed from the data prior to analysis. It would be understood that the results from this assay provide relative values that are assessed according to annotated values within 10 ppm to provide an identity for the molecular weight detected. Thus, a mass shift within 10 ppm is considered consistent with determining the identity of a specific cellular metabolite previously annotated due to differences in ionization source and instrumentation, e.g. between different experiments or using different instruments.
As used herein, a mass was considered to be the same across LC/ESI-TOF-MS runs using a simple algorithm that first sorts the data by mass and retention time. […] If a series of measurements fit this definition it was considered to be from the same compound. If either the mass or the retention time varied by more than the limits listed above it was considered to be a different compound and given a new unique designation.
The data from the most reproducible mass features was log base 2 transformed and median centered prior to statistical analysis. […] To test the null hypothesis a one way permutation based t-test assuming a normal approximation of the conditional distribution was used and implement using the Conditional Inference Procedures in a Permutation Test Framework (Coin) library, a contributed package of programming code. Statistics tests were performed without replacement of missing values decrease the degrees of freedom rather than imputing missing values. […] False discovery rates (FDR) were controlled using the Q value estimator (Storey et al., 2003, Proc Natl Acad. Sci., 100:9440-5) and implemented using the qvalue library in R (Dabney et al., 2003, qvalue: Q-value estimation for false discovery rate control. R package version 1.10.0., www.CRAN.R-project.org).
The extracellular media from treated and untreated cells was processed as described in Cezar et al., (2007, Stem Cells Development 16: 869-882, this publication is incorporated by reference), for extraction of low molecular weight molecules (<3 kD) for metabolomics analysis. Extracellular low molecular weight molecule preparations were separated by liquid chromatography followed by electrospray ionization time of flight (LC-ESI-TOF-MS) mass spectrometry for ionization and detection of the full spectra of low molecular weight molecules present in each sample. More specifically, the samples were separated using the ESI_Luna_HILIC—95_t—06OACN—16 min method (HILIC chromatography). Statistical differences were inferred by subsequent bioinformatics and in silico mapping of deisotoped ESI-TOF-MS mass features as described below (also provided in Cezar et al. (2007, id.)).
Briefly, ionization (100 m/z-1500 m/z) was acquired on an Agilent 6520 Accurate-Mass Q-TOF in extended dynamic range and positive mode. Mass features were generated using two independent methods. First MassHunter Qualitative Analysis was used to generate mass features using the Molecular Feature Extraction algorithm (MFE).

[2] = feature cpdID 36, neutral mass 101.1204, RT 0.720145, Triethylamine or Hexylamine
[3] = feature cpdID 8902, neutral mass 276.1256, RT 8.733378, no hit
[4] = feature cpdID 11232, neutral mass 311.1029, RT 7.400847, p-Glucosyloxymandelonitrile or (S)-4-Hydroxymandelonitrile beta-D-glucoside
[5] = feature cpdID 14190, neutral mass 356.253, RT 1.103957, HMDB04239, 13,14-dihydro PGE1 or Prostaglandin F1alpha
[6] = feature cpdID 16504, neutral mass 393.0913, RT 7.25538, no hit
[7] = feature cpdID 16939, neutral mass 400.2796, RT 1.108613, 7-Ketocholesterol
[8] = feature cpdID 17096, neutral mass 403.1776, RT 6.2306, no hit
[9] = feature cpdID 19500, neutral mass 444.3034, RT 1.106333, […]-Dihydroxyvitamin D3-26,23-lactone
[10] = feature cpdID 19704, neutral mass 448.1344, RT 7.184483, no hit
[11] = feature cpdID 21926, neutral mass 488.3323, RT 1.106573, no hit
[12] = feature cpdID 23129, neutral mass 515.181, RT 10.44297, no hit
[13] = feature cpdID 23163, neutral mass 516.1241, RT 7.217222, Formononetin 7-O-glucoside-6″-O-malonate, Isochlorogenic acid b or 13-Dicaffeoylquinic acid
[14] = feature cpdID 24142, neutral mass 538.2779, RT 0.783395, no hit
[15] = feature cpdID 25445, neutral mass 572.1055, RT 7.089848, no hit
[16] = feature cpdID 25601, neutral mass 576.3861, RT 1.10751, 3-Hexaprenyl-4-hydroxy-5-methoxybenzoic acid
[17] = feature cpdID 27363, neutral mass 620.4117, RT 1.108317, no hit
[18] = feature cpdID 28720, neutral mass 661.1924, RT 6.495524, no hit
[19] = feature cpdID 29101, neutral mass 672.1828, RT 6.528464, no hit
[20] = feature cpdID 29124, neutral mass 672.6836, RT 6.559082, no hit
[21] = feature cpdID 29227, neutral mass 676.1781, RT 1.298314, no hit
[22] = feature cpdID 31637, neutral mass 744.1091, RT 1.26415, no hit
[23] = feature cpdID 37922, neutral mass 932.7613, RT 6.562271, no hit
[24] = feature cpdID 40510, neutral mass 1040.322, RT 6.499979, no hit
[25] = feature cpdID 42137, neutral mass 1122.172, RT 1.256606, no hit
[26] = feature cpdID 45209, neutral mass 1300.402, RT 6.501484, no hit
[27] = feature cpdID 45486, neutral mass 1322.385, RT 6.518707, no hit

**Q.** How did the “cell death (in words)” value (human cardiomyocytes) turn out when `COc1cccc2c1C(=O)c1c(O)c3c(c(O)c1C2=O)C[C@@](O)(C(=O)CO)C[C@@H]3O[C@H]1C[C@H](N)[C@H](O)[C@H](C)O1` [Doxorubicin] was run?
**A.** significantly higher cell death

**Q.** And the doxfold [1, 2]?
**A.** −1.186 fold

**Q.** What about the doxfold [1, 3] of the same molecule?
**A.** 2.438 fold

**Q.** And the doxfold [1, 4]?
**A.** 5.193 fold

**Q.** And the doxfold [1, 5]?
**A.** 12.32 fold

**Q.** What about the doxfold [1, 6] of the same molecule?
**A.** 1.09 fold

**Q.** What about the doxfold [1, 7] of the same molecule?
**A.** 11.7 fold

**Q.** And the doxfold [1, 8]?
**A.** −2.02 fold

**Q.** And the doxfold [1, 9]?
**A.** 16.24 fold

**Q.** What about the doxfold [1, 10] of the same molecule?
**A.** 2.122 fold

**Q.** And the doxfold [1, 11]?
**A.** 7.799 fold

**Q.** And the doxfold [1, 12]?
**A.** 1.178 fold

**Q.** What about the doxfold [1, 13] of the same molecule?
**A.** 2.198 fold

**Q.** What about the doxfold [1, 14] of the same molecule?
**A.** 1.559 fold

**Q.** And the doxfold [1, 15]?
**A.** 1.199 fold

**Q.** What about the doxfold ([1]; feature cpdID 25561, neutral mass 575.2051, RT 7.271724, no hit) of the same molecule?
**A.** 2.11 fold

**Q.** What about the doxfold [1, 16] of the same molecule?
**A.** 4.776 fold

**Q.** What about the doxfold [1, 17] of the same molecule?
**A.** 2.836 fold

**Q.** And the doxfold [1, 18]?
**A.** 1.096 fold

**Q.** And the doxfold [1, 19]?
**A.** 2.172 fold

**Q.** And the doxfold [1, 20]?
**A.** 1.282 fold

**Q.** And the doxfold [1, 21]?
**A.** −6.816 fold

**Q.** What about the doxfold [1, 22] of the same molecule?
**A.** −1.423 fold

**Q.** What about the doxfold ([1]; feature cpdID 33162, neutral mass 791.2316, RT 6.496594, no hit) of the same molecule?
**A.** 1.817 fold

**Q.** What about the doxfold ([1]; feature cpdID 37905, neutral mass 932.2608, RT 6.542554, no hit) of the same molecule?
**A.** 1.663 fold

**Q.** And the doxfold [1, 23]?
**A.** 1.324 fold

**Q.** And the doxfold ([1]; feature cpdID 37938, neutral mass 933.3726, RT 8.330596, no hit)?
**A.** 1.117 fold

**Q.** What about the doxfold [1, 24] of the same molecule?
**A.** 1.351 fold

**Q.** What about the doxfold [1, 25] of the same molecule?
**A.** −3.594 fold

**Q.** What about the doxfold [1, 26] of the same molecule?
**A.** 1.838 fold

**Q.** And the doxfold [1, 27]?
**A.** 1.667 fold

**Q.** Which “cell death (in words)” value (human cardiomyocytes) does the source give for `CC(=O)O[C@H]1C(=O)[C@@]2(C)[C@H]([C@H](OC(=O)c3ccccc3)[C@]3(O)C[C@H](OC(=O)[C@H](O)[C@@H](NC(=O)c4ccccc4)c4ccccc4)C(C)=C1C3(C)C)[C@]1(OC(C)=O)CO[C@@H]1C[C@@H]2O` [Paclitaxel] here?
**A.** significantly higher cell death

**Q.** What about the pacfold [1, 2] of the same molecule?
**A.** 1.413 fold

**Q.** And the pacfold [1, 3]?
**A.** 2.728 fold

**Q.** What about the pacfold [1, 4] of the same molecule?
**A.** 4.25 fold

**Q.** What about the pacfold [1, 5] of the same molecule?
**A.** 12.08 fold

**Q.** What about the pacfold ([1]; feature cpdID 15112, neutral mass 372.0557, RT […], no hit) of the same molecule?
**A.** −1.026 fold

**Q.** And the pacfold [1, 6]?
**A.** 1.219 fold

**Q.** And the pacfold [1, 7]?
**A.** 11.76 fold

**Q.** What about the pacfold [1, 8] of the same molecule?
**A.** −2.028 fold

**Q.** And the pacfold [1, 9]?
**A.** 17.08 fold

**Q.** What about the pacfold [1, 10] of the same molecule?
**A.** 2.694 fold

**Q.** What about the pacfold [1, 11] of the same molecule?
**A.** 8.467 fold

**Q.** And the pacfold [1, 12]?
**A.** 1.263 fold

**Q.** What about the pacfold [1, 13] of the same molecule?
**A.** 2.288 fold

**Q.** What about the pacfold [1, 14] of the same molecule?
**A.** 1.807 fold

**Q.** And the pacfold [1, 15]?
**A.** 1.259 fold

**Q.** What about the pacfold [1, 16] of the same molecule?
**A.** 5.623 fold

**Q.** And the pacfold [1, 17]?
**A.** 3.53 fold

**Q.** What about the pacfold [1, 18] of the same molecule?
**A.** 1.205 fold

**Q.** And the pacfold [1, 19]?
**A.** 2.408 fold

**Q.** What about the pacfold [1, 20] of the same molecule?
**A.** 1.432 fold

**Q.** And the pacfold [1, 21]?
**A.** −1.322 fold

**Q.** What about the pacfold [1, 22] of the same molecule?
**A.** −1.129 fold

**Q.** And the pacfold [1, 23]?
**A.** 1.506 fold

**Q.** What about the pacfold [1, 24] of the same molecule?
**A.** 1.465 fold

**Q.** And the pacfold [1, 25]?
**A.** −2.322 fold

**Q.** What about the pacfold [1, 26] of the same molecule?
**A.** 1.771 fold

**Q.** And the pacfold [1, 27]?
**A.** 1.836 fold
